The record followed here is EP4644383A1 (Jiangsu Yahong Meditech Co., Ltd., priority 2022, dated 2024).

What all share (format): biochemical
One assay concerns the target T1, FGFR1 (Homo sapiens, UniProt P11362).
T1 construct: cytoplasmic domain [398-822 (terminal) amino acids]; purchased Carna 08-133
Kind of assay: FGFR1 kinase activity inhibition assay (LanthaScreen TR-FRET). The essentials: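 Emission ratio 520 nm/495 nm by TR-FRET after stopping reaction with 10 mM EDTA and 60 min incubation at 22°C. Inhibition normalized between no-enzyme (min) and DMSO (max) controls, then fitted to a four-parameter curve (Top, Bottom, HillSlope).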
A general note: TR-FRET usually uses a lanthanide donor and a delayed reading to cut background.

In another assay the target is T2, FGFR2 (Homo sapiens, UniProt P21802).
T2 construct: FGFR2's cytoplasmic domain [399-821 (terminal) amino acids]; purchased Carna 08-134
T2 sequence (P21802 399-821): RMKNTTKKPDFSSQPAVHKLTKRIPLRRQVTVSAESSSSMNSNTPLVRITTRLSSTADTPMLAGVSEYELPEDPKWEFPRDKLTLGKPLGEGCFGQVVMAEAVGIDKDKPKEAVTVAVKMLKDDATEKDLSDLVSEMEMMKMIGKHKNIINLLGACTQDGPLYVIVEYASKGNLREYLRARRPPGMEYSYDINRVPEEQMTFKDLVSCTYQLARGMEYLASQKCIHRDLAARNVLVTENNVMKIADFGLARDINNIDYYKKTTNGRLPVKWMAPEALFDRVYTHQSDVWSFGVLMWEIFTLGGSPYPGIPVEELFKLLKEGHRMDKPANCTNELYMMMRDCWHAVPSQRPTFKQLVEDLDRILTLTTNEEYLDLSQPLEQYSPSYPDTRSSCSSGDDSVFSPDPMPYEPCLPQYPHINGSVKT
Kind of assay: FGFR2 kinase activity inhibition assay (LanthaScreen TR-FRET). On the procedure: (§1) FGFR1 kinase activity was measured using Invitrogen LanthaScreen™ assay technology, which utilized fluorescently-labeled peptides and terbium-labeled antibodies to directly measure an amount of the phosphorylated substrate through time-resolved fluorescence energy transfer (TR-FRET). • ① The test compounds were diluted: starting from a concentration of 1 µM, with a buffer solution in a three-fold serial dilution, the buffer solution being composed of 50 mM HEPES, 10 mM MgCl2, 0.01% TritonX-100, 0.01% BSA, 4 mM DTT (pH 7.5), and 1% DMSO; • ② 0.01 nM recombinant human GST fusion protein FGFR1's cytoplasmic domain [398-822 (terminal) amino acids] (Carna: 08-133) was formulated into a 2 × solution, mixed well with the test compounds, and incubated at 23°C for 10 minutes; • ③ 28 nM Fluorescein-Poly GT peptide substrate (Life Technologies: PV3611) and 28 µM ATP were formulated into a 2 × solution, mixed well with the test compounds and enzyme in ②, and incubated at 23°C for 30 minutes; • ④ 10 µL of 2nM Tb-PY20 antibody (Life Technologies: PV3552) and 10 mM EDTA were added to quench the kinase reaction, and incubated at 22°C for 60 minutes. • ⑤ The reaction was measured using a PerkinElmer EnVision multimode plate reader through TR-FRET dual wavelength detection. • 1. The RFU values were copied from the Envision program. • 2. The ratio of RFU 520nm/RFU 495nm was calculated. • 3. The value of the ratio was converted to a percentage inhibition value. % Inhibition = (max-data)/(max-min) × 100 [formula]
(§2) "Min" represents the ratio of the control without enzyme, "max" represents the ratio of the DMSO control, and "data" represents the ratio of the compounds in wells with different concentrations.
(§3) "Top" refers to the maximum response, "Bottom" refers to the minimum response, and "HillSlope" refers to the slope of the curve.
According to the same method as that in the FGFR1 kinase activity inhibition assay, the inhibitory activities against FGFR2, FGFR3 and FGFR4 were tested using FGFR2's cytoplasmic domain [399-821 (terminal) amino acids] (Carna: 08-134), FGFR3's cytoplasmic domain [436-806 (terminal) amino acids] (Carna: 08-135) and FGFR4's cytoplasmic domain [460-802 (terminal) amino acids] (Carna: 08-136), respectively. […]

Another assay concerns the target T3, FGFR3 (Homo sapiens, UniProt P22607).
T3 construct: FGFR3's cytoplasmic domain [436-806 (terminal) amino acids]; purchased Carna 08-135
Put plainly: FGFR3 kinase activity inhibition assay (LanthaScreen TR-FRET). To be noted: for Selectivity (X) FGFR1/FGFR3: ratio of IC50 FGFR1/FGFR3, selectivity towards FGFR3; for Selectivity (X) FGFR2/FGFR3: ratio of IC50 FGFR2/FGFR3, selectivity towards FGFR3; for Selectivity (X) FGFR4/FGFR3: ratio of IC50 FGFR4/FGFR3, selectivity towards FGFR3. A digest of the protocol: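 Read-out is TR-FRET, with the 520 nm/495 nm emission ratio normalised to DMSO (max) and enzyme-free (min) controls. Enzyme was the FGFR3 cytoplasmic domain, residues 436-806. EDTA (10 mM) stopped the reaction, followed by 60 min at 22 °C before reading.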

The target of another assay is T4, FGFR4 (Homo sapiens, UniProt P22455).
T4 construct: FGFR4's cytoplasmic domain [460-802 (terminal) amino acids]; purchased Carna 08-136
T4 sequence (P22455 460-802): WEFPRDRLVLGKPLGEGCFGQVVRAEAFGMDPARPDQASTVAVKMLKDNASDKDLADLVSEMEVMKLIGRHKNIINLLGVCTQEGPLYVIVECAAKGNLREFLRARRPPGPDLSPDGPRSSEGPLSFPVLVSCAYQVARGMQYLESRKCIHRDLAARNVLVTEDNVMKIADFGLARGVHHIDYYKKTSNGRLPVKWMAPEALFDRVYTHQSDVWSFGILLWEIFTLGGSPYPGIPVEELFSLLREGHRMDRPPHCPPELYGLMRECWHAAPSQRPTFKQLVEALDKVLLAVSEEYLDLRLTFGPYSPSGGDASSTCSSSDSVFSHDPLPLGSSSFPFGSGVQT
Put plainly: FGFR4 kinase activity inhibition assay (LanthaScreen TR-FRET). To be noted: FGFR4 kinase, TR-FRET; read-out: IC50 (nM) FGFR4. On the procedure:
as §1, §2, §3
According to the same method as that in the FGFR1 kinase activity inhibition assay, the inhibitory activities against FGFR2, FGFR3 and FGFR4 were tested using FGFR2's cytoplasmic domain [399-821 (terminal) amino acids] (Carna: 08-134), FGFR3's cytoplasmic domain [436-806 (terminal) amino acids] (Carna: 08-135) and FGFR4's cytoplasmic domain [460-802 (terminal) amino acids] (Carna: 08-136), respectively. Table 1 reports the kinase activity inhibition results and selectivity towards FGFR3 of each compound.

[1] abbreviates: FGFR1 kinase, TR-FRET, read-out: IC50 (nM) FGFR1.
[2] abbreviates: FGFR2 kinase, TR-FRET, read-out: IC50 (nM) FGFR2.
The mark [3] stands for this setting: FGFR3 kinase, TR-FRET, read-out: IC50 (nM) FGFR3.

Like-named read-outs stand apart in the source and are kept apart here.

T3 sequence (P22607 436-806): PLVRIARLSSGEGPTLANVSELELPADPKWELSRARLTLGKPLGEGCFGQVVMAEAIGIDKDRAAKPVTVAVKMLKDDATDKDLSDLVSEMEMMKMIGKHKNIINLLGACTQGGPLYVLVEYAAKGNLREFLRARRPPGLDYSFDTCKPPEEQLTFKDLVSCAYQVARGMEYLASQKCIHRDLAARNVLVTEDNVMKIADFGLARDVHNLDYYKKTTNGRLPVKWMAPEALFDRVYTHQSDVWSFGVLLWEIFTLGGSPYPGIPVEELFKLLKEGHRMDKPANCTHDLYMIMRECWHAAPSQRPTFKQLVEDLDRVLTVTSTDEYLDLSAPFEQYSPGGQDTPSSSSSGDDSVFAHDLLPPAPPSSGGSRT
T1 sequence (P11362 398-822): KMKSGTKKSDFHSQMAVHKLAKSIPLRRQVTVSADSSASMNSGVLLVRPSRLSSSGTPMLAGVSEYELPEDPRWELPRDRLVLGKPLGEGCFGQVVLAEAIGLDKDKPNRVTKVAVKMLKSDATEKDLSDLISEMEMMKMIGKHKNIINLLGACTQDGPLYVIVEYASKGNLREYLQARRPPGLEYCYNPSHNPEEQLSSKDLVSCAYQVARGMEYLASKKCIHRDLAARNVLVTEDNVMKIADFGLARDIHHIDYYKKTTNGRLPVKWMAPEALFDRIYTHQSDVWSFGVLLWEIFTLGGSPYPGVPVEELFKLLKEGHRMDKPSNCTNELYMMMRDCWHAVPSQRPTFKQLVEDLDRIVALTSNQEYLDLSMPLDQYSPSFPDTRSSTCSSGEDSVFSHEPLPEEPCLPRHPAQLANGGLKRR

Consider `C[C@@H](Oc1cc(C(F)(F)F)c2[nH]nc(-c3cnn(C)c3)c2c1)c1c(Cl)cncc1Cl` [Example 1, (R)-5-(1-(3,5-dichloropyridin-4-yl)ethoxy)-3-(1-methyl-1H-pyrazol-4-yl)-7-(trifluoromethyl)-1H-indazole], for which the IC50 at FGFR1 (setting [1]), on FGFR2 (setting [2]) and on FGFR3 (setting [3]) was greater than 100 nM in each case. In addition, the “Selectivity (X) FGFR1/FGFR3” value on FGFR3 is “A (A represents 1 ≤ multiple X<20)”. The “Selectivity (X) FGFR2/FGFR3” value on FGFR3 was “A (A represents 1 ≤ multiple X<20)”.
With `C[C@@H](Oc1ccc2[nH]nc(-c3cnn(C4CCN(C(=O)N(C)C)CC4)c3)c2n1)c1c(Cl)cncc1Cl` [Example 36, (R)-4-(4-(5-(1-(3,5-dichloropyridin-4-yl)ethoxy)-1H-pyrazolo[4,3-b]pyridin-3-yl)-1H-pyrazol-1-yl)-N,N-dimethylpiperidine-1-carboxamide], the IC50 (as a rule, the concentration that gives 50% inhibition) against FGFR1 lay in the range of 10 to 100 nM. For the same molecule, the IC50 against FGFR2 lay in the range of 10 to 100 nM. Moreover, on FGFR3, the half-inhibitory concentration (IC50) lay within 1 to 10 nM, the “Selectivity (X) FGFR1/FGFR3” value is listed as “A (A represents 1 ≤ multiple X<20)” and the “Selectivity (X) FGFR2/FGFR3” value is given as “A (A represents 1 ≤ multiple X<20)”.
In turn, `CC(C)N1CCC(n2cc(-c3n[nH]c4ccc(O[C@H](C)c5c(Cl)cncc5Cl)nc34)cn2)CC1` [Example 37, (R)-5-(1-(3,5-dichloropyridin-4-yl)ethoxy)-3-(1-(1-isopropylpiperidin-4-yl)-1H-pyrazol-4-yl)1H-pyrazolo[4,3-b]pyridine] yielded an IC50 on FGFR1 of 1 to 10 nM. In addition, the 50% inhibitory concentration (IC50) against FGFR2 was 1 to 10 nM. Also, at FGFR3, the concentration for half-maximal inhibition (IC50) is 1 to 10 nM, the “Selectivity (X) FGFR1/FGFR3” value is “A (A represents 1 ≤ multiple X<20)” and the “Selectivity (X) FGFR2/FGFR3” value was “A (A represents 1 ≤ multiple X<20)”.
As for `C[C@@H](Oc1ccc2[nH]nc(-c3cnn(CCO)c3)c2n1)c1c(Cl)cncc1Cl` [Example 39, (R)-2-(4-(5-(1-(3,5-dichloropyridin-4-yl)ethoxy)-1H-pyrazolo[4,3-b]pyridin-3-yl)-1H-pyrazol-1-yl)ethan-1-ol], the half-maximal inhibitory concentration (IC50) is 10 to 100 nM at FGFR1 (setting [1]), 1 to 10 nM on FGFR2 (setting [2]) and 1 to 10 nM at FGFR3 (setting [3]). The “Selectivity (X) FGFR1/FGFR3” value at FGFR3 is reported as “A (A represents 1 ≤ multiple X<20)”. Moreover, the “Selectivity (X) FGFR2/FGFR3” value at FGFR3 is “A (A represents 1 ≤ multiple X<20)”.
In the case of `C[C@@H](Oc1ccc2[nH]nc(-c3cnn(CC(F)F)c3)c2n1)c1c(Cl)cncc1Cl` [Example 41, (R)-5-(1-(3,5-dichloropyridin-4-yl)ethoxy)-3-(1-(2,2-difluoroethyl)-1H-pyrazol-4-yl)-1H-pyrazolo[4,3-b]pyridine], the concentration for half-maximal inhibition (IC50) on FGFR1 (setting [1]), on FGFR2 (setting [2]) and on FGFR3 (setting [3]) was 10 to 100 nM in each case. Moreover, the “Selectivity (X) FGFR1/FGFR3” value at FGFR3 is recorded as “A (A represents 1 ≤ multiple X<20)”. Further, the “Selectivity (X) FGFR2/FGFR3” value on FGFR3 was “A (A represents 1 ≤ multiple X<20)”.
Regarding `C[C@@H](Oc1ccc2[nH]nc(-c3cnn(C4CC4)c3)c2n1)c1c(Cl)cncc1Cl` [Example 48, (R)-3-(1-cyclopropyl-1H-pyrazol-4-yl)-5-(1-(3,5-dichloropyridin-4-yl)ethoxy)-1H-pyrazino[4,3-b]pyridine], the IC50 on FGFR1 (setting [1]) lay in the range of 10 to 100 nM; on FGFR2 (setting [2]), 10 to 100 nM; on FGFR3 (setting [3]), 1 to 10 nM. The “Selectivity (X) FGFR1/FGFR3” value at FGFR3 is reported as “A (A represents 1 ≤ multiple X<20)”. In addition, the “Selectivity (X) FGFR2/FGFR3” value at FGFR3 is given as “A (A represents 1 ≤ multiple X<20)”.
For the molecule `CNCCNC(=O)c1ccc2[nH]nc(-c3cnn(C)c3)c2c1` [Example 65, 3-(1-methyl-1H-pyrazol-4-yl)-N-(2-(methylamino)ethyl)-1H-indazole-5-carboxamide], the IC50 on FGFR1 (setting [1]) is greater than 100 nM; at FGFR2 (setting [2]), greater than 100 nM; at FGFR3 (setting [3]), 10 to 100 nM. Moreover, the “Selectivity (X) FGFR1/FGFR3” value on FGFR3 is listed as “B (B represents 20 ≤ multiple X<50)”. Further, the “Selectivity (X) FGFR2/FGFR3” value on FGFR3 was “C (C represents 50 ≤ multiple X<100)”.
On to `CC(Oc1ccc2[nH]nc(-c3cnn(C)c3)c2c1)c1cc(C#N)cc2ncccc12` (centres unmarked) [Example 159, 5-(1-((3-(1-methyl-1H-pyrazol-4-yl)-1H-indazol-5-yl)oxy)ethyl)qu inoline-7-carbonitrile], for which the half-inhibitory concentration (IC50) at FGFR1 (setting [1]) is greater than 100 nM; at FGFR2 (setting [2]), 10 to 100 nM; on FGFR3 (setting [3]) it was 1 to 10 nM. For the same molecule, the “Selectivity (X) FGFR1/FGFR3” value on FGFR3 was “B (B represents 20 ≤ multiple X<50)”. Moreover, on FGFR3, the “Selectivity (X) FGFR2/FGFR3” value is “A (A represents 1 ≤ multiple X<20)”.
Taken in the same sequence, the figures for `CC(Oc1ccc2[nH]nc(-c3cnn(C4CCN(C#N)CC4)c3)c2c1)c1cccc2nccnc12` (centres unmarked) [Example 162, 4-(4-(5-(1-(quinoxalin-5-yl)ethoxy)-1H-indazol-3-yl)-1H-pyrazol-1-yl)piperidine-1-carbonitrile] were 10 to 100 nM, 10 to 100 nM, 1 to 10 nM, “A (A represents 1 ≤ multiple X<20)” and “A (A represents 1 ≤ multiple X<20)”.
The molecule `CC(Oc1ccc2[nH]nc(-c3cnn(C4CCN(S(C)(=O)=O)CC4)c3)c2c1)c1cccc2nccnc12` (centres unmarked) [Example 163, 5-(1-((3-(1-(1-(methylsulfonyl)piperidin-4-yl)-1H-pyrazol-4-yl)-1-indazol-5-yl)oxy)ethyl)quinoxaline] gave an IC50 on FGFR1 of 10 to 100 nM. For the same molecule, the 50% inhibitory concentration (IC50) on FGFR2 fell in the range of 10 to 100 nM. In addition, on FGFR3, the IC50 lay within 1 to 10 nM, the “Selectivity (X) FGFR1/FGFR3” value is “A (A represents 1 ≤ multiple X<20)” and the “Selectivity (X) FGFR2/FGFR3” value is on record as “A (A represents 1 ≤ multiple X<20)”.
As for `CC(Oc1ccc2[nH]nc(-c3cnn(CCCS(C)(=O)=O)c3)c2c1)c1cccc2nccnc12` (centres unmarked) [Example 181, 5-(1-((3-(1-(3-(methylsulfonyl)propyl)-1H-pyrazol-4-yl)-1H-indazol-5-yl)oxy)ethyl)quinoxaline], the results for the half-inhibitory concentration (IC50) on FGFR1 (setting [1]), on FGFR3 (setting [3]) and on FGFR4 were 10 to 100 nM, less than 1 nM and 10 to 100 nM, respectively. Further, the “Selectivity (X) FGFR1/FGFR3” value on FGFR3 is listed as “A (A represents 1 ≤ multiple X<20)”. At FGFR3, the “Selectivity (X) FGFR4/FGFR3” value was “A (A represents 1 ≤ multiple X<20)”.
`CNC1CC(n2cc(-c3n[nH]c4ccc(OC(C)c5cccc6nccnc56)cc34)cn2)C1` (centres unmarked) [Example 182, N-methyl-3-(4-(5-(1-(quinoxalin-5-yl)ethoxy)-1H-indazol-3-yl)-1H-pyrazol-1-yl)c yclobutan-1-amine]: the concentration for half-maximal inhibition (IC50) on FGFR1 (setting [1]) lay in the range of 10 to 100 nM; at FGFR3 (setting [3]) it was 1 to 10 nM; on FGFR4, 10 to 100 nM. Also, the “Selectivity (X) FGFR1/FGFR3” value at FGFR3 is “A (A represents 1 ≤ multiple X<20)”. Besides, on FGFR3, the “Selectivity (X) FGFR4/FGFR3” value was “A (A represents 1 ≤ multiple X<20)”.
As to `CC(Oc1ccc2[nH]nc(-c3cnn(C)c3)c2c1)c1cccn2ncc(F)c12` (centres unmarked) [Example 184, 5-(1-(3-fluoropyrazolo[1,5-a]pyridin-4-yl)ethoxy)-3-(1-methyl-1H-pyrazol-4-yl)-1H-indazole], the values for the IC50 on FGFR1 (setting [1]), on FGFR3 (setting [3]) and on FGFR4 were 10 to 100 nM, less than 1 nM and 1 to 10 nM, respectively. Also, the “Selectivity (X) FGFR1/FGFR3” value at FGFR3 is given as “B (B represents 20 ≤ multiple X<50)”. Also, on FGFR3, the “Selectivity (X) FGFR4/FGFR3” value is given as “A (A represents 1 ≤ multiple X<20)”.
